# Values of other authors in patent publication US12697315B2, “Treatment for interstitial lung disease” (United Therapeutics Corporation, priority 2020, dated 2026).
# Where two headings read alike, the source gives them in different places.
# System: IPF
# Conditions: 52 weeks, cited from earlier work
Compound,"FVC % predicted, placebo corrected, rate of decline [% predicted]","FVC, placebo corrected, rate of decline","FVC, placebo corrected, rate of decline (pirfenidone) [mL]"
"COC(=O)c1ccc2c(c1)NC(=O)/C2=C(\Nc1ccc(N(C)C(=O)CN2CCN(C)CC2)cc1)c1ccccc1 [Nintedanib, nintedanib]",3.2,~ 109 mL,–
"Cc1ccc(=O)n(-c2ccccc2)c1 [Pirfenidone, pirfenidone]",–,–,153 to 193
